The record followed here is ChEMBL document CHEMBL6120992, “Breviane Spiroditerpenoids with Anti-inflammatory and Antiviral Activities from Deep-Sea-Derived Fungus Penicillium sp. F59” (J Nat Prod, 2025).

In assay [1] the test system is RAW264.7. Description: Antiinflammatory activity in LPS-induced mouse RAW264.7 cells assessed as inhibition of nitric oxide secretion at 20 microM incubated for 24 hrs by Griess reagent based assay relative to control. It is filed as functional.
Assay [2] relates to RAW264.7. Description: Cytotoxicity against mouse RAW264.7 cells assessed as cell viability at 20 microM incubated for 24 hrs by CCK-8 method relative to control. The following applies: read-out: Activity. It is filed as functional. (Tetrazolium dyes change colour on reduction, which living cells bring about.)
Assay [3] deals with SARS-CoV-2. In words: Antiviral activity against SARS-CoV-2 Omicron BA.2 pseudovirus infected in human 293T/ACE2 cells assessed as virus inhibition at 50 microM incubated for 24 hrs by firefly luciferase assay relative to control. Format: functional. The following applies: Severe acute respiratory syndrome coronavirus 2, Omicron BA.2, 293T/ACE2.
The nature of assay [4]: Cytotoxicity against human 293T/ACE2 cells assessed as cell viability at 100 microM incubated for 24 hrs by CellTiter assay relative to control. Format: functional. The following applies: read-out: Activity.
Assay [5] concerns RAW264.7. Description: Antiinflammatory activity in LPS-induced mouse RAW264.7 cells assessed as inhibition of nitric oxide secretion incubated for 24 hrs by Griess reagent based assay. Format: functional, cell-based. The following applies: RAW264.7, 24 h. For orientation: Griess reagent forms a coloured azo dye with nitrite.
The subject of assay [6] is SARS-CoV-2. Description: Antiviral activity against SARS-CoV-2 Omicron BA.2 pseudovirus infected in human 293T/ACE2 cells assessed as virus inhibition incubated for 24 hrs by firefly luciferase assay. It is filed as functional, organism-based. To be noted: Severe acute respiratory syndrome coronavirus 2, Omicron BA.2, 293T/ACE2, 24 h.

One may read the inhibition as the share of the control response that was lost under treatment. Take `CC1=CC(=O)[C@@H]2[C@@]3(C)[C@H](O)CC(=O)C(C)(C)[C@@H]3CC[C@@]2(C)[C@]12Cc1c(c(C)c(C)oc1=O)O2`: the inhibition at 20 µM with RAW264.7 [1] came to 45%. Also, the viability at 20 µM in the assay on RAW264.7 [2] was determined as 99%. In the assay on SARS-CoV-2 [3], the inhibition at 50 µM came to 28%. The viability at 100 µM in assay [4] stood at 91%.

As for `CC1=CC(=O)C=C[C@]2(C)[C@H]3CC=C(C)[C@@]45Oc6c(C)c(C)oc(=O)c6[C@@H]4O[C@@H](O)[C@@]35CC[C@@H]12`, in the assay with RAW264.7 [1], the inhibition at 20 µM amounted to 69%. Also, in the assay with RAW264.7 [2], the viability at 20 µM was determined as 91%. In addition, the inhibition at 50 µM in the assay on SARS-CoV-2 [3] is 28%. Also, the viability at 100 µM in assay [4] is 93%.

For the molecule `CC(=O)/C(C)=C1\C[C@H]2O[C@@H](O)[C@]34CC[C@H]5C(C)=CC(=O)C[C@@H]6O[C@H](C=C(C)[C@@]23O1)[C@@H]4[C@@]65C`, the inhibition at 20 µM in the assay with RAW264.7 [1] came to 38%. Besides, in the assay on RAW264.7 [2], the viability at 20 µM amounted to 100%. Moreover, the inhibition at 50 µM in the assay with SARS-CoV-2 [3] was determined as 0%. Besides, the viability at 100 µM in assay [4] came to 90%.

As a reminder, the IC50 is the midpoint of a concentration-inhibition curve. For the molecule `CC1=CC(=O)C=C[C@]2(C)[C@H]3C(O)C=C(C)[C@@]4(Cc5c(c(C)c(C)oc5=O)O4)[C@]3(C)CC[C@@H]12` (stereo partly drawn), in the assay with RAW264.7 [1], the inhibition at 20 µM was found to be 94%. Further, the IC50 in the assay with RAW264.7 [5] is 9.2 µM. For the same molecule, in the assay with RAW264.7 [2], the viability at 20 µM amounted to 98%. Besides, in the assay on SARS-CoV-2 [3], the inhibition at 50 µM turned out to be 0%. Further, in assay [4], the viability at 100 µM amounted to 93%.

On to `CC(=O)/C(C)=C1/C[C@H]2O[C@@H](O)[C@]34CC[C@H]5C(C)=CC(=O)C[C@@H]6O[C@H](C=C(C)[C@@]23O1)[C@@H]4[C@@]65C`, for which, in the assay on RAW264.7 [1], the inhibition at 20 µM stood at 31%. Moreover, in the assay with RAW264.7 [2], the viability at 20 µM stood at 96%. In addition, the inhibition at 50 µM in the assay on SARS-CoV-2 [3] was 15%. In addition, the viability at 100 µM in assay [4] was found to be 92%.

`CC1=CC[C@@H]2[C@@]3(C)C=CC(=O)[C@@](C)(CO)[C@@H]3CC[C@@]2(C)[C@]12Cc1c(c(C)c(C)oc1=O)O2`: the inhibition at 20 µM with RAW264.7 [1] stood at 49%. Further, the viability at 20 µM in the assay on RAW264.7 [2] came to 87%. The inhibition at 50 µM with SARS-CoV-2 [3] was 14%. In addition, the viability at 100 µM in assay [4] amounted to 97%.

As to `CC1=CC(=O)C=C[C@]2(C)[C@H]3[C@@H](O)[C@@H]4O[C@]4(C)[C@@]4(Cc5c(c(C)c(C)oc5=O)O4)[C@]3(C)CC[C@@H]12`, in the assay on RAW264.7 [1], the inhibition at 20 µM worked out at 63%. In the assay on RAW264.7 [2], the viability at 20 µM is 100%. Further, the IC50 in the assay on SARS-CoV-2 [6] came to 10.3 µM. Further, the inhibition at 50 µM with SARS-CoV-2 [3] was determined as 69%. The viability at 100 µM in assay [4] is 99%.

For the molecule `CC(=O)O[C@@H]1O[C@@H]2C/C(=C(/C)C(C)=O)O[C@]23C(C)=C[C@H]2O[C@H]4CC(=O)C=C(C)[C@@H]5CC[C@@]13[C@H]2[C@@]45C`, the inhibition at 20 µM in the assay with RAW264.7 [1] was determined as 34%. Further, the viability at 20 µM with RAW264.7 [2] is 100%. For the same molecule, the inhibition at 50 µM in the assay on SARS-CoV-2 [3] worked out at 57%. Also, the viability at 100 µM in assay [4] is 92%.

For the molecule `CC(C)(C)c1ccc(S(=O)(=O)/C=C/C#N)cc1` [BAY-11-7085], the inhibition at 20 µM in the assay with RAW264.7 [1] worked out at 77%. For the same molecule, the IC50 in the assay with RAW264.7 [5] was 13.3 µM; in the assay on SARS-CoV-2 [6], 0.74 µM. Also, the viability at 20 µM in the assay with RAW264.7 [2] was 100%. The inhibition at 50 µM in the assay with SARS-CoV-2 [3] was determined as 99%. The viability at 100 µM in assay [4] turned out to be 99%.

On to `CC1=CC(=O)C[C@@H]2O[C@@H]3C=C(C)[C@@]4(Cc5c(c(C)c(C)oc5=O)O4)[C@]4(C)CC[C@@H]1[C@@]2(C)[C@@H]34`, for which the inhibition at 20 µM in the assay on RAW264.7 [1] is 25%. In the assay with RAW264.7 [2], the viability at 20 µM came to 100%. Further, the inhibition at 50 µM in the assay with SARS-CoV-2 [3] worked out at 0%. The viability at 100 µM in assay [4] amounted to 95%.

With `CC1=C[C@H](O)[C@@H]2[C@@]3(C)[C@H](O)C(=O)[C@H](O)C(C)(C)[C@@H]3CC[C@@]2(C)[C@]12Cc1c(c(C)c(C)oc1=O)O2`, the inhibition at 20 µM in the assay on RAW264.7 [1] turned out to be 35%. The viability at 20 µM in the assay on RAW264.7 [2] came out at 100%. The inhibition at 50 µM in the assay with SARS-CoV-2 [3] was found to be 11%. For the same molecule, the viability at 100 µM in assay [4] stood at 93%.

In the case of `CC1=CC(=O)[C@@H]2[C@@]3(C)C=CC(=O)C(C)(C)[C@@H]3CC[C@@]2(C)[C@]12Cc1c(c(C)c(C)oc1=O)O2`, the inhibition at 20 µM with RAW264.7 [1] stood at 87%. For the same molecule, in the assay on RAW264.7 [5], the IC50 turned out to be 5.3 µM. Moreover, the viability at 20 µM in the assay on RAW264.7 [2] was 100%. In addition, the inhibition at 50 µM in the assay on SARS-CoV-2 [3] stood at 23%. In assay [4], the viability at 100 µM was determined as 95%.

Take `CO[C@H]1c2c(c(C)c(C)oc2=O)O[C@]12C(C)=C[C@H]1O[C@H]3CC(=O)C=C(C)[C@@H]4CC[C@]2(C)[C@H]1[C@@]34C`: in the assay with RAW264.7 [1], the inhibition at 20 µM was 57%. The viability at 20 µM in the assay on RAW264.7 [2] was determined as 85%. In addition, the inhibition at 50 µM with SARS-CoV-2 [3] was found to be 0%. The viability at 100 µM in assay [4] came out at 92%.

Turning to `CC1=CC(=O)C[C@@H]2O[C@@H]3C=C(C)[C@@]45Oc6c(C)c(C)oc(=O)c6[C@@H]4OC[C@]54CC[C@@H]1[C@@]2(C)[C@@H]34`, in the assay with RAW264.7 [1], the inhibition at 20 µM is 45%. In addition, in the assay on RAW264.7 [2], the viability at 20 µM worked out at 93%. Also, the inhibition at 50 µM in the assay on SARS-CoV-2 [3] turned out to be 16%. The viability at 100 µM in assay [4] worked out at 90%.

For `CC1=CC(=O)C=C[C@]2(C)[C@H]3[C@@H](O)C=C(C)[C@@]4(Cc5c(c(C)c(C)oc5=O)O4)[C@]3(C)CC[C@@H]12` [BREVIONE F], in the assay with RAW264.7 [1], the inhibition at 20 µM stood at 79%. The IC50 with RAW264.7 [5] is 12.9 µM. Also, in the assay on RAW264.7 [2], the viability at 20 µM was determined as 100%. Further, in the assay with SARS-CoV-2 [3], the inhibition at 50 µM came to 5%. Moreover, the viability at 100 µM in assay [4] amounted to 97%.

Consider `CC1=CC(=O)C=C[C@]2(C)[C@H]3[C@@H]4C=C(C)[C@@]56Oc7c(C)c(C)oc(=O)c7[C@@H]5O[C@@H](O4)[C@@]36CC[C@@H]12`, for which the inhibition at 20 µM in the assay on RAW264.7 [1] is 98%. The IC50 in the assay with RAW264.7 [5] was 1.4 µM; in the assay with SARS-CoV-2 [6], 8.5 µM. Moreover, the viability at 20 µM in the assay with RAW264.7 [2] turned out to be 93%. Further, the inhibition at 50 µM in the assay with SARS-CoV-2 [3] was 95%. Further, the viability at 100 µM in assay [4] was 94%.

As to `CC1=CC(=O)C[C@@H]2O[C@@H]3C=C(C)[C@]4(Oc5c(C)c(C)oc(=O)c5[C@@H]4O)[C@]4(C)CC[C@@H]1[C@@]2(C)[C@@H]34`, the inhibition at 20 µM in the assay with RAW264.7 [1] came out at 52%. Besides, in the assay with RAW264.7 [2], the viability at 20 µM was 100%. The inhibition at 50 µM in the assay with SARS-CoV-2 [3] was found to be 43%. Moreover, in assay [4], the viability at 100 µM worked out at 92%.

In the case of `CC1=CC(=O)C[C@@H]2O[C@@H]3C=C(C)[C@@]45Oc6c(C)c(C)oc(=O)c6[C@@H]4O[C@@H](O)[C@]54CC[C@@H]1[C@@]2(C)[C@@H]34`, the inhibition at 20 µM with RAW264.7 [1] came out at 35%. Besides, the viability at 20 µM in the assay with RAW264.7 [2] was determined as 100%. Also, the inhibition at 50 µM with SARS-CoV-2 [3] amounted to 0%. Further, the viability at 100 µM in assay [4] is 99%.

Turning to `CC1=CC(=O)C=C[C@]2(C)[C@H]3C(=O)C=C(C)[C@]4(Oc5c(C)c(C)oc(=O)c5[C@@H]4O)[C@]3(C)CC[C@@H]12`, the inhibition at 20 µM in the assay on RAW264.7 [1] worked out at 47%. Also, in the assay with RAW264.7 [2], the viability at 20 µM was found to be 91%. Also, in the assay with SARS-CoV-2 [3], the inhibition at 50 µM worked out at 46%. In assay [4], the viability at 100 µM turned out to be 98%.

Take `CC1=C[C@H](O)[C@@H]2[C@@]3(C)C[C@@H](O)C(=O)C(C)(C)[C@@H]3CC[C@@]2(C)[C@]12Cc1c(c(C)c(C)oc1=O)O2`: in the assay with RAW264.7 [1], the inhibition at 20 µM was 38%. Moreover, the viability at 20 µM in the assay with RAW264.7 [2] was determined as 100%. The inhibition at 50 µM with SARS-CoV-2 [3] was determined as 0%. In addition, the viability at 100 µM in assay [4] was found to be 93%.
